# Assays:
# Test in all cases: Test C preemergence
# Assay type in all cases: in vivo
# [1] = system: ryegrass, Italian (Italian ryegrass, Lolium multiflorum); details: for Plant response rating, Ryegrass, Italian: scale 0 to 100, 0 no effect, 100 complete control
# Outline: (§1)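 Scores of 0 to 100 reflect visual comparison with control plants, where 0 means no effect and 100 complete control, made 13 to 15 d after treatment. Application was preemergence to seeds in loam-sand soil or postemergence to plants 2 to 18 cm tall in peat-based mix, using a surfactant-containing solvent formulation.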
# [2] = system: crabgrass, large (large crabgrass, Digitaria sanguinalis); details: for Plant response rating, Crabgrass, Large: scale 0 to 100, 0 no effect, 100 complete control
# Outline: as §1
# corn (Zea mays) = details: for Plant response rating, Corn: scale 0 to 100, 0 no effect, 100 complete control
# Outline: as §1
# [3] = system: oilseed rape (Brassica napus); details: for Plant response rating, Oilseed Rape: scale 0 to 100, 0 no effect, 100 complete control
# Outline: as §1
# [4] = system: barnyardgrass (Echinochloa crus-galli); details: for Plant response rating, Barnyardgrass: scale 0 to 100, 0 no effect, 100 complete control
# Outline: as §1
# soybean (Glycine max) = details: for Plant response rating, Soybean: scale 0 to 100, 0 no effect, 100 complete control
# Outline: as §1
# [5] = system: Galium (catchweed bedstraw, Galium aparine); details: for Plant response rating, Galium: scale 0 to 100, 0 no effect, 100 complete control
# Outline: as §1
# [6] = system: ragweed (common ragweed, Ambrosia elatior); details: for Plant response rating, Ragweed: scale 0 to 100, 0 no effect, 100 complete control
# Outline: as §1
# [7] = system: pigweed (Amaranthus retroflexus); details: for Plant response rating, Pigweed: scale 0 to 100, 0 no effect, 100 complete control
# Outline: as §1
# [8] = system: blackgrass (Alopecurus myosuroides); details: for Plant response rating, Blackgrass: scale 0 to 100, 0 no effect, 100 complete control
# Outline: as §1
# [9] = system: nutsedge, yellow (yellow nutsedge, Cyperus esculentus); details: for Plant response rating, Nutsedge, Yellow: scale 0 to 100, 0 no effect, 100 complete control
# Outline: as §1
# [10] = system: lambsquarters (Chenopodium album); details: for Plant response rating, Lambsquarters: scale 0 to 100, 0 no effect, 100 complete control
# Outline: as §1
# [11] = system: foxtail, giant (giant foxtail, Setaria faberii); details: for Plant response rating, Foxtail, Giant: scale 0 to 100, 0 no effect, 100 complete control
# Outline: as §1
# [12] = system: morningglory (Ipomoea coccinea); details: for Plant response rating, Morningglory: scale 0 to 100, 0 no effect, 100 complete control
# Outline: as §1
# [13] = system: wheat (winter wheat, Triticum aestivum); details: for Plant response rating, Wheat: scale 0 to 100, 0 no effect, 100 complete control
# Outline: as §1
# [14] = system: velvetleaf (Abutilon theophrasti); details: for Plant response rating, Velvetleaf: scale 0 to 100, 0 no effect, 100 complete control
# Outline: as §1
# [15] = system: johnsongrass (Sorghum halepense); details: for Plant response rating, Johnsongrass: scale 0 to 100, 0 no effect, 100 complete control
# Outline: as §1
# [16] = system: waterhemp (common waterhemp, Amaranthus rudis); details: for Plant response rating, Waterhemp: scale 0 to 100, 0 no effect, 100 complete control
# Outline: as §1
# [17] = 31 g ai/ha, 0 is no effect, 100 is complete control
smiles,measurement,setting,value
CN1CC(c2cccc(OC(F)F)c2)C(C(=O)Nc2ccccc2S(C)(=O)=O)C1=O (stereo not drawn) [Compound 523],"Plant response rating (scale of 0 to 100), Ryegrass, Italian",[1]; [17],0
same,"Plant response rating, Ryegrass, Italian",[1]; 62 g ai/ha,5
same,"Plant response rating, Ryegrass, Italian",[1]; 125 g ai/ha,5
same,"Plant response rating, Ryegrass, Italian",[1]; 250 g ai/ha,20
same,"Plant response rating (scale of 0 to 100), Crabgrass, Large",[2]; [17],90
same,"Plant response rating, Crabgrass, Large",[2]; 62 g ai/ha,95
same,"Plant response rating, Crabgrass, Large",[2]; 125 g ai/ha,100
same,"Plant response rating, Crabgrass, Large",[2]; 250 g ai/ha,98
same,"Plant response rating (scale of 0 to 100), Corn",corn (Zea mays); [17],0
same,"Plant response rating, Corn",corn (Zea mays); 62 g ai/ha,20
same,"Plant response rating, Corn",corn (Zea mays); 125 g ai/ha,65
same,"Plant response rating, Corn",corn (Zea mays); 250 g ai/ha,85
same,"Plant response rating (scale of 0 to 100), Oilseed Rape",[3]; [17],0
same,"Plant response rating, Oilseed Rape",[3]; 62 g ai/ha,0
same,"Plant response rating, Oilseed Rape",[3]; 125 g ai/ha,30
same,"Plant response rating, Oilseed Rape",[3]; 250 g ai/ha,60
same,"Plant response rating (scale of 0 to 100), Barnyardgrass",[4]; [17],65
same,"Plant response rating, Barnyardgrass",[4]; 62 g ai/ha,95
same,"Plant response rating, Barnyardgrass",[4]; 125 g ai/ha,98
same,"Plant response rating, Barnyardgrass",[4]; 250 g ai/ha,100
same,"Plant response rating (scale of 0 to 100), Soybean",soybean (Glycine max); [17],10
same,"Plant response rating, Soybean",soybean (Glycine max); 62 g ai/ha,25
same,"Plant response rating, Soybean",soybean (Glycine max); 125 g ai/ha,30
same,"Plant response rating, Soybean",soybean (Glycine max); 250 g ai/ha,45
same,"Plant response rating (scale of 0 to 100), Galium",[5]; [17],0
same,"Plant response rating, Galium",[5]; 62 g ai/ha,80
same,"Plant response rating, Galium",[5]; 125 g ai/ha,80
same,"Plant response rating, Galium",[5]; 250 g ai/ha,80
same,"Plant response rating (scale of 0 to 100), Ragweed",[6]; [17],5
same,"Plant response rating, Ragweed",[6]; 62 g ai/ha,15
same,"Plant response rating, Ragweed",[6]; 125 g ai/ha,40
same,"Plant response rating, Ragweed",[6]; 250 g ai/ha,70
same,"Plant response rating (scale of 0 to 100), Pigweed",[7]; [17],75
same,"Plant response rating, Pigweed",[7]; 62 g ai/ha,100
same,"Plant response rating, Pigweed",[7]; 125 g ai/ha,90
same,"Plant response rating, Pigweed",[7]; 250 g ai/ha,90
same,"Plant response rating (scale of 0 to 100), Blackgrass",[8]; [17],0
same,"Plant response rating, Blackgrass",[8]; 62 g ai/ha,0
same,"Plant response rating, Blackgrass",[8]; 125 g ai/ha,20
same,"Plant response rating, Blackgrass",[8]; 250 g ai/ha,90
same,"Plant response rating (scale of 0 to 100), Nutsedge, Yellow",[9]; [17],0
same,"Plant response rating, Nutsedge, Yellow",[9]; 62 g ai/ha,0
same,"Plant response rating, Nutsedge, Yellow",[9]; 125 g ai/ha,0
same,"Plant response rating, Nutsedge, Yellow",[9]; 250 g ai/ha,40
same,"Plant response rating (scale of 0 to 100), Lambsquarters",[10]; [17],20
same,"Plant response rating, Lambsquarters",[10]; 62 g ai/ha,70
same,"Plant response rating, Lambsquarters",[10]; 125 g ai/ha,70
same,"Plant response rating, Lambsquarters",[10]; 250 g ai/ha,65
same,"Plant response rating (scale of 0 to 100), Foxtail, Giant",[11]; [17],85
same,"Plant response rating, Foxtail, Giant",[11]; 62 g ai/ha,90
same,"Plant response rating, Foxtail, Giant",[11]; 125 g ai/ha,98
same,"Plant response rating, Foxtail, Giant",[11]; 250 g ai/ha,98
same,"Plant response rating (scale of 0 to 100), Morningglory",[12]; [17],20
same,"Plant response rating, Morningglory",[12]; 62 g ai/ha,35
same,"Plant response rating, Morningglory",[12]; 125 g ai/ha,25
same,"Plant response rating, Morningglory",[12]; 250 g ai/ha,35
same,"Plant response rating (scale of 0 to 100), Wheat",[13]; [17],0
same,"Plant response rating, Wheat",[13]; 62 g ai/ha,30
same,"Plant response rating, Wheat",[13]; 125 g ai/ha,50
same,"Plant response rating, Wheat",[13]; 250 g ai/ha,80
same,"Plant response rating (scale of 0 to 100), Velvetleaf",[14]; [17],0
same,"Plant response rating, Velvetleaf",[14]; 62 g ai/ha,0
same,"Plant response rating, Velvetleaf",[14]; 125 g ai/ha,30
same,"Plant response rating, Velvetleaf",[14]; 250 g ai/ha,45
same,"Plant response rating (scale of 0 to 100), Johnsongrass",[15]; [17],0
same,"Plant response rating, Johnsongrass",[15]; 62 g ai/ha,30
same,"Plant response rating, Johnsongrass",[15]; 125 g ai/ha,60
same,"Plant response rating, Johnsongrass",[15]; 250 g ai/ha,70
same,"Plant response rating (scale of 0 to 100), Waterhemp",[16]; [17],55
same,"Plant response rating, Waterhemp",[16]; 62 g ai/ha,65
same,"Plant response rating, Waterhemp",[16]; 125 g ai/ha,65
same,"Plant response rating, Waterhemp",[16]; 250 g ai/ha,80

# From patent publication US12077503B2, “Substituted cyclic amides and their use as herbicides” (FMC CORPORATION, priority 2015, dated 2024)
